The text below walks through data of ChEMBL document CHEMBL6121047, “Design, Synthesis, and Evaluation of Selective PDE4 Inhibitors for the Therapy of Pulmonary Injury” (J Med Chem, 2025).

Active and inactive are the calls of the source. The rule behind the calls is not given here.

Usually inhibition stands for the share of the control response that was lost under treatment. By IC50 is commonly meant the concentration that inhibits the measured activity by half.

In data set [1] the target is 3',5'-cyclic-AMP phosphodiesterase 4B (Homo sapiens, UniProt Q07343). The experiment in a line: Inhibition of recombinant full length PDE4B (unknown origin) using FAM-cAMP as substrate at 1 uM preincubated with compound for compound for 15 mins followed by substrate addition and measured after 30 mins by Envision multilabel reader analysis relative to control. The following applies: time 45.0 min.

The test system of the next data set is HepG2. Description: Cytotoxicity against human HepG2 cells assessed as reduction in cell viability incubated for 24 hrs by CCK-8 assay. The class given is toxicity, cell-based. As to conditions: hepg2, 24 h.
In the next data set the test system is RAW264.7. Description: Cytotoxicity against mouse RAW264.7 cells assessed as reduction in cell viability incubated for 24 hrs by CCK-8 assay. The class given is toxicity, cell-based. As to conditions: raw264.7, 24 h. (In general: Formazan colour is commonly taken as a measure of viable cells.)
A further data set deals with HEK-293T. Description: Cytotoxicity against human HEK293T cells assessed as reduction in cell viability incubated for 24 hrs by CCK-8 assay. The class given is toxicity, cell-based. Set-up: concentration or dose not given beside the values.
The next data set concerns the target Phosphodiesterase 4 (Homo sapiens, UniProt P27815+Q08499+Q07343+Q08493). The experiment in a line: Inhibition of PDE4 (unknown origin). The class given is protein assay.
Data set [2] is described as follows: Inhibition of PDE3 (unknown origin). Also on record: species or system Homo sapiens.
Data set [3] deals with Mus musculus. Description: Anti-inflammatory activity against cigarette-smoke/LPS-induced COPD male C57BL/6 mouse model assessed as reduction in bronchiole thickness at 5 mg/kg pretreated with cigarette smoke exposure for 21 weeks with subsequent LPS induction twice on the first and 15th day followed by compound administration every day via gavage for 4 weeks by H and E staining based microscopic analysis. The class given is functional, organism-based.

The subject of data set [4] is Mus musculus. Description: Anti-inflammatory activity against LPS-induced acute lung injury male BALB/c mouse model assessed as enlarged bronchiole tubes in lung at 4 mg/kg administered once a day via gavage for 7 days followed by LPS stimulation and measured after 24 hrs by H and E staining based microscopic analysis. The class given is functional, organism-based. As to conditions: time 192.0 hrs.

Data set [5] relates to Mus musculus. The experiment in a line: Anti-inflammatory activity against LPS-induced acute lung injury male BALB/c mouse model assessed as relaxation of alveolar in lung at 4 mg/kg administered once a day via gavage for 7 days followed by LPS stimulation and measured after 24 hrs by H and E staining based microscopic analysis. The class given is functional, organism-based. The following applies: time 192.0 hrs.

Data set [6] has as its system Mus musculus. Description: Anti-inflammatory activity against cigarette-smoke/LPS-induced COPD male C57BL/6 mouse model assessed as reduction in IL-6 level in BALF at 5 mg/kg pretreated with cigarette smoke exposure for 21 weeks with subsequent LPS induction twice on the first and 15th day followed by compound administration every day via gavage for 4 weeks. The class given is functional, organism-based.

The test system of data set [7] is Mus musculus. The experiment in a line: Anti-inflammatory activity against LPS-induced acute lung injury male BALB/c mouse model assessed as restoration of alveolar septa in lung at 4 mg/kg administered once a day via gavage for 7 days followed by LPS stimulation and measured after 24 hrs by H and E staining based microscopic analysis. The class given is functional, organism-based. As to conditions: time 192.0 hrs.

Data set [8] has as its system Mus musculus. The experiment in a line: Anti-inflammatory activity against cigarette-smoke/LPS-induced COPD male C57BL/6 mouse model assessed as decrease in collagen formation at 5 mg/kg pretreated with cigarette smoke exposure for 21 weeks with subsequent LPS induction twice on the first and 15th day followed by compound administration every day via gavage for 4 weeks by masson staining based microscopic analysis. The class given is functional, organism-based.

For data set [9], the system named is Mus musculus. The experiment in a line: Anti-inflammatory activity against LPS-induced acute lung injury male BALB/c mouse model assessed as restoration of alveolar cavities in lung at 4 mg/kg administered once a day via gavage for 7 days followed by LPS stimulation and measured after 24 hrs by H and E staining based microscopic analysis. The class given is functional, organism-based. The following applies: time 192.0 hrs.

Data set [10] deals with Mus musculus. Description: Anti-inflammatory activity against cigarette-smoke/LPS-induced COPD male C57BL/6 mouse model assessed as reduction in MMP9 level in BALF at 5 mg/kg pretreated with cigarette smoke exposure for 21 weeks with subsequent LPS induction twice on the first and 15th day followed by compound administration every day via gavage for 4 weeks. The class given is functional, organism-based.

Data set [11] has as its system Mus musculus. The experiment in a line: Antifibrotic activity against LPS-induced acute lung injury male BALB/c mouse model assessed as decrease in collagen deposition at 4 mg/kg administered once a day via gavage for 7 days followed by LPS stimulation and measured after 24 hrs by masson staining based microscopic analysis. The class given is functional, organism-based. As to conditions: time 192.0 hrs.

In data set [12] the test system is Mus musculus. Description: Anti-inflammatory activity against cigarette-smoke/LPS-induced COPD male C57BL/6 mouse model assessed as reduction in TNF-alpha level in BALF at 5 mg/kg pretreated with cigarette smoke exposure for 21 weeks with subsequent LPS induction twice on the first and 15th day followed by compound administration every day via gavage for 4 weeks. The class given is functional, organism-based.

Sequence of 3',5'-cyclic-AMP phosphodiesterase 4B (Q07343 whole entry): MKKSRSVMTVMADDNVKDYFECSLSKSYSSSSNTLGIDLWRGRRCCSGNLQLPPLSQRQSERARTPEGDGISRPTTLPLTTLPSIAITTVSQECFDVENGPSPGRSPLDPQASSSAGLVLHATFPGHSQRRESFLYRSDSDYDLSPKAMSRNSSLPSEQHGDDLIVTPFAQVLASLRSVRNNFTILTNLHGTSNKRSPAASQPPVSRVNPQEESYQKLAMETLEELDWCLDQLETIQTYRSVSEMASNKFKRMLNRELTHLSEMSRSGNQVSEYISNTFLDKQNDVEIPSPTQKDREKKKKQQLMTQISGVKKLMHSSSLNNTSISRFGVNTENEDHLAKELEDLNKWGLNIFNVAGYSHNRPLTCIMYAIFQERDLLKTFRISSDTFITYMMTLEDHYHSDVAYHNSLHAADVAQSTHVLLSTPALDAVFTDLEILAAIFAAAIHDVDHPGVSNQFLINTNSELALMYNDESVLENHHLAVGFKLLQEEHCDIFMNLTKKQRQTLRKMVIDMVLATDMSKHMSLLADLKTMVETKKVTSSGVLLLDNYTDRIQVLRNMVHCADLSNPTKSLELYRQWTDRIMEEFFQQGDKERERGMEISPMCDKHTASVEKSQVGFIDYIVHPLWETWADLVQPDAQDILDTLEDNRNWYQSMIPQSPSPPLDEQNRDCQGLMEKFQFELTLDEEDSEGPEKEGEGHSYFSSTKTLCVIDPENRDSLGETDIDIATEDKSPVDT

On to `O=C(ON1C(=O)CCC1=O)c1cccc2[nH]c(-c3ccc(OC(F)F)c(OCC4CC4)c3)nc12`, for which the inhibition in [1] turned out to be 91.5%.

For the compound `O=C(ON1C(=O)CCC1=O)c1ccc2[nH]c(-c3ccc(OC(F)F)c(OCC4CC4)c3)nc2c1`, in data set [1], the inhibition came to 62.2%.

Take `Cn1cc(NC(=O)c2cccc3[nH]c(-c4ccc(OC(F)F)c(OCC5CC5)c4)nc23)cn1`: the inhibition in [1] is 93.6%. Besides, the Activity result with HepG2 and in the data set on RAW264.7 was “Non-toxic” throughout.

Take `O=C(NCc1c(F)cc(F)cc1F)c1cccc2[nH]c(-c3ccc(OC(F)F)c(OCC4CC4)c3)nc12`: the inhibition in data set [1] was 88.6%.

Take `COc1ccc(-c2nc3cc(C(=O)NCc4ncccn4)ccc3[nH]2)cc1OCC1CC1`: the inhibition in data set [1] was found to be 42.5%.

As for `O=C(NCc1cc(F)cc(F)c1)c1cccc2[nH]c(-c3ccc(OC(F)F)c(OCC4CC4)c3)nc12`, the inhibition in [1] came to 82.4%.

Consider `O=C(NCc1ccc(F)cc1F)c1ccc2[nH]c(-c3ccc(OC(F)F)c(OCC4CC4)c3)nc2c1`, for which the inhibition in [1] turned out to be 24.8%.

Turning to `COc1ccc(-c2nc3cc(C(=O)Nc4ccc5ncsc5c4)ccc3[nH]2)cc1OCC1CC1`, the inhibition in data set [1] worked out at 49.2%.

For `O=C(NCc1cccc(F)c1F)c1cccc2[nH]c(-c3ccc(OC(F)F)c(OCC4CC4)c3)nc12`, the Activity is on record as above 70% with HEK-293T and “Non-toxic” in the data set with RAW264.7. For the same compound, the inhibition in data set [1] was determined as 91.9%.

With `O=C(NCc1ccccn1)c1cccc2[nH]c(-c3ccc(OC(F)F)c(OCC4CC4)c3)nc12`, the inhibition in data set [1] stood at 93.9%. In the data set with RAW264.7, the Activity result is “Non-toxic”.

As for `Cc1nc2ccc(NC(=O)c3cccc4[nH]c(-c5ccc(OC(F)F)c(OCC6CC6)c5)nc34)cc2s1`, the inhibition in [1] was 56.8%.

As for `O=C(Nc1ccncc1)c1ccc2[nH]c(-c3ccc(OC(F)F)c(OCC4CC4)c3)nc2c1`, the inhibition in data set [1] turned out to be 62.3%.

With `O=C(Nc1ccncc1)c1cccc2[nH]c(-c3ccc(OC(F)F)c(OCC4CC4)c3)nc12`, in data set [1], the inhibition is 65.6%.

Turning to `O=C(Nc1ccccc1)c1cccc2[nH]c(-c3ccc(OC(F)F)c(OCC4CC4)c3)nc12`, the inhibition in data set [1] came out at 83.8%.

Regarding `N#Cc1ccc(NNC(=O)c2ccc3[nH]c(-c4ccc(OC(F)F)c(OCC5CC5)c4)nc3c2)cc1`, in data set [1], the inhibition was 76.2%.

Consider `COc1cc2c(cc1OC)-c1c/c(=N\c3c(C)cc(C)cc3C)n(CCNC(N)=O)c(=O)n1CC2` [ENSIFENTRINE], for which the IC50 turned out to be 1479 nM against Phosphodiesterase 4 and 0.4 nM in data set [2].

For `O=C(Nc1ccccn1)c1cccc2[nH]c(-c3ccc(OC(F)F)c(OCC4CC4)c3)nc12`, the inhibition in [1] came out at 81.6%.

With `O=C(NCc1ccc2ccccc2c1)c1cccc2[nH]c(-c3ccc(OC(F)F)c(OCC4CC4)c3)nc12`, in data set [1], the inhibition amounted to 90.1%. Also, the Activity result in the data set on HepG2 and in the data set with RAW264.7 was “Non-toxic” throughout.

Turning to `O=C(NCc1cnccn1)c1cccc2[nH]c(-c3ccc(OC(F)F)c(OCC4CC4)c3)nc12`, the inhibition in data set [1] is 93.3%.

Consider `O=C(NCc1cccnc1)c1cccc2[nH]c(-c3ccc(OC(F)F)c(OCC4CC4)c3)nc12`, for which, in [1], the inhibition stood at 91.1%. For the same compound, the Activity entry with RAW264.7 was “Non-toxic”.

For `O=C(Nc1c(Cl)cncc1Cl)c1ccc(OC(F)F)c(OCC2CC2)c1`, the result with Mus musculus [3], with Mus musculus [4], in the data set with Mus musculus [5], with Mus musculus [6], in the data set with Mus musculus [7] and in the data set with Mus musculus [8] was Active. Besides, the result with Mus musculus [9], in the data set on Mus musculus [10], with Mus musculus [11] and in the data set on Mus musculus [12] was Active.

With `O=C(Nc1nccs1)c1cccc2[nH]c(-c3ccc(OC(F)F)c(OC(F)F)c3)nc12`, the inhibition in data set [1] came to 68%.

Take `O=C(O)c1ccc(NNC(=O)c2cccc3[nH]c(-c4ccc(OC(F)F)c(OCC5CC5)c4)nc23)cc1`: the inhibition in [1] turned out to be 96.2%. Further, the Activity entry with HepG2 and in the data set with RAW264.7 was “Non-toxic” each time.

In the case of `COc1ccc(-c2nc3cc(C(=O)NCc4ccc(F)cc4F)ccc3[nH]2)cc1OCC1CC1`, the inhibition in [1] came out at 23.3%.

In the case of `FC(F)Oc1ccc(-c2nc3cc(-c4ccncc4)ccc3[nH]2)cc1OCC1CC1`, the inhibition in data set [1] amounted to 81.4%.

Regarding `O=C(NCc1ncccn1)c1ccc2[nH]c(-c3ccc(OC(F)F)c(OCC4CC4)c3)nc2c1`, the inhibition in [1] was 62.3%.

As for `O=C(NCC1CCOCC1)c1cccc2[nH]c(-c3ccc(OC(F)F)c(OCC4CC4)c3)nc12`, the inhibition in [1] is 94.6%.

Turning to `O=C(Nc1ccc2[nH]ccc2c1)c1cccc2[nH]c(-c3ccc(OC(F)F)c(OCC4CC4)c3)nc12`, the inhibition in [1] was determined as 93.5%. Moreover, the Activity result with HepG2 and in the data set on RAW264.7 was “Non-toxic” in each case.

In the case of `O=C(Nc1nc2ccccc2s1)c1cccc2[nH]c(-c3ccc(OC(F)F)c(OCC4CC4)c3)nc12`, in [1], the inhibition is 53.1%.

With `O=C(NCc1c(F)cccc1F)c1cccc2[nH]c(-c3ccc(OC(F)F)c(OCC4CC4)c3)nc12`, the Activity with HEK-293T was above 70%; with RAW264.7, “Non-toxic”. Further, the inhibition in [1] stood at 94.4%.

With `O=C(NCc1c(F)cc(F)cc1F)c1cccc2[nH]c(-c3ccc(OC(F)F)c(OC(F)F)c3)nc12`, the inhibition in data set [1] came out at 73.3%.

Regarding `O=C(Nc1ccc2ncsc2c1)c1cccc2[nH]c(-c3ccc(OC(F)F)c(OCC4CC4)c3)nc12`, the inhibition in data set [1] is 79.3%.

Consider `O=C(NCc1ccc(F)cc1F)c1cccc2[nH]c(-c3ccc(OC(F)F)c(OCC4CC4)c3)nc12`, for which the figures for the Activity in the data set with HEK-293T and in the data set on RAW264.7 were above 70% and “Non-toxic”, respectively. In addition, in data set [1], the inhibition is 94%.

`O=C(NCc1ccc(F)c(F)c1)c1cccc2[nH]c(-c3ccc(OC(F)F)c(OCC4CC4)c3)nc12`: the Activity in the data set with HEK-293T was above 70%; with RAW264.7, “Non-toxic”. Also, the inhibition in data set [1] is 90.6%.

On to `Cn1ccc(NC(=O)c2cccc3[nH]c(-c4ccc(OC(F)F)c(OCC5CC5)c4)nc23)n1`, for which the inhibition in data set [1] stood at 94.1%.

Consider `COc1ccc(CNC(=O)c2cccc3[nH]c(-c4ccc(OC(F)F)c(OCC5CC5)c4)nc23)cn1`, for which the inhibition in [1] came to 93.4%. For the same compound, in the data set on RAW264.7, the Activity result is “Non-toxic”.

As to `O=S(=O)(c1ccccc1)n1cc(-c2ccc3[nH]c(-c4ccc(OC(F)F)c(OCC5CC5)c4)nc3c2)c2ccccc21`, the inhibition in [1] was found to be 25.8%.

For `O=C(NCc1ccccc1)c1cccc2[nH]c(-c3ccc(OC(F)F)c(OCC4CC4)c3)nc12`, the results for the Activity with HEK-293T and with RAW264.7 were above 70% and “Non-toxic”, respectively. The inhibition in [1] is 92.2%.

Consider `O=C(NCc1ncccn1)c1cccc2[nH]c(-c3ccc(OC(F)F)c(OCC4CC4)c3)nc12`, for which, in [1], the inhibition amounted to 95.5%.

As to `O=C(Nc1cccnc1)c1cccc2[nH]c(-c3ccc(OC(F)F)c(OCC4CC4)c3)nc12`, the inhibition in data set [1] came to 90.1%. The Activity entry in the data set with HepG2 and in the data set on RAW264.7 was “Non-toxic” in each case.

Consider `O=C(Nc1ccc2ncsc2c1)c1cccc2[nH]c(-c3ccc(OC(F)F)c(OC(F)F)c3)nc12`, for which the inhibition in data set [1] was 70.2%.

As for `O=C(NCc1cc(F)ccc1F)c1cccc2[nH]c(-c3ccc(OC(F)F)c(OCC4CC4)c3)nc12`, the inhibition in [1] came out at 88.8%.

`COc1ccc(-c2ccc3[nH]c(-c4ccc(OC(F)F)c(OCC5CC5)c4)nc3c2)cc1OC`: the inhibition in data set [1] worked out at 80.9%.

With `O=C(NCc1ccccc1F)c1cccc2[nH]c(-c3ccc(OC(F)F)c(OCC4CC4)c3)nc12`, in [1], the inhibition was determined as 85.2%.
